Experimental data as given in ChEMBL document CHEMBL1201862, “PubChem BioAssay data set” (2004).
The source made the active and inactive calls.

How the values were obtained:
Format in all cases: functional
[1] = target: Receptor-type tyrosine-protein kinase FLT3 (Homo sapiens, UniProt P36888);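 also: FLT3 was tested as one member of a kinome-wide kinase panel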
[2] = target: Dual specificity tyrosine-phosphorylation-regulated kinase 1A (Homo sapiens, UniProt Q13627);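 also: measured against DYRK1A as one member of a broad kinome profiling panel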
[3] = target: Serine/threonine-protein kinase TAO1 (Homo sapiens, UniProt Q7L7X3)
[4] = target: Proto-oncogene tyrosine-protein kinase receptor Ret (Homo sapiens, UniProt P07949);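 also: measured within a kinome-wide profiling panel, RET as the panel member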
[5] = target: Ribosomal protein S6 kinase alpha-3 (Homo sapiens, UniProt P51812);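 also: measured within a kinome-wide profiling panel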
[6] = target: Tyrosine-protein kinase JAK3 (Homo sapiens, UniProt P52333)
[7] = target: Mitogen-activated protein kinase kinase kinase kinase 2 (Homo sapiens, UniProt Q12851);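 also: measured as one member of a kinome-wide kinase panel, with MAP4K2 as the panel entry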
[8] = target: Protein kinase C theta type (Homo sapiens, UniProt Q04759); assay: Navigating the Kinome. Panel member name: PRKCQ
Protein kinase C theta type, sequence (Q04759 whole entry): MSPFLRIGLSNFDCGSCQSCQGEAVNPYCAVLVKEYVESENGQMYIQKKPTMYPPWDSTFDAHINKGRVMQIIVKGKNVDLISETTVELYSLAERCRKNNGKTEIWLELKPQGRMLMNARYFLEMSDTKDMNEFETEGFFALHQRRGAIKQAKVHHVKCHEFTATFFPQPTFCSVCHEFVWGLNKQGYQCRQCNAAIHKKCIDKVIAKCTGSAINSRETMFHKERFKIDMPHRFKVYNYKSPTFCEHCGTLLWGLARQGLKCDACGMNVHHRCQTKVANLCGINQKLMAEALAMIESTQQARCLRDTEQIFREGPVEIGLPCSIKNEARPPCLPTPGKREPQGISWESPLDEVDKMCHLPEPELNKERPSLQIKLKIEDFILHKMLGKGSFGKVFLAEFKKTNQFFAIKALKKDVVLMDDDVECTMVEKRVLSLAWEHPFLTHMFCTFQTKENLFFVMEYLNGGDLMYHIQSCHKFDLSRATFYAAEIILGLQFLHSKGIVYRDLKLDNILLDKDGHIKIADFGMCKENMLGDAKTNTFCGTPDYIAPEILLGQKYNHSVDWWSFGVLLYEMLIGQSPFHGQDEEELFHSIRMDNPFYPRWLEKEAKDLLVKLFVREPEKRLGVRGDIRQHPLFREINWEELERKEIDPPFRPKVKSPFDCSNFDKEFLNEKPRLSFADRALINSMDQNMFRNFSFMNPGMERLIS

[9] = target: Cyclin-dependent kinase 8 (Homo sapiens, UniProt P49336); assay: Navigating the Kinome. Panel member name: CDK8
[10] = target: T1, Serine/threonine-protein kinase Chk1 (Homo sapiens, UniProt O14757);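 also: measured as one member of a kinome-wide kinase profiling panel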
T1 sequence (O14757 whole entry): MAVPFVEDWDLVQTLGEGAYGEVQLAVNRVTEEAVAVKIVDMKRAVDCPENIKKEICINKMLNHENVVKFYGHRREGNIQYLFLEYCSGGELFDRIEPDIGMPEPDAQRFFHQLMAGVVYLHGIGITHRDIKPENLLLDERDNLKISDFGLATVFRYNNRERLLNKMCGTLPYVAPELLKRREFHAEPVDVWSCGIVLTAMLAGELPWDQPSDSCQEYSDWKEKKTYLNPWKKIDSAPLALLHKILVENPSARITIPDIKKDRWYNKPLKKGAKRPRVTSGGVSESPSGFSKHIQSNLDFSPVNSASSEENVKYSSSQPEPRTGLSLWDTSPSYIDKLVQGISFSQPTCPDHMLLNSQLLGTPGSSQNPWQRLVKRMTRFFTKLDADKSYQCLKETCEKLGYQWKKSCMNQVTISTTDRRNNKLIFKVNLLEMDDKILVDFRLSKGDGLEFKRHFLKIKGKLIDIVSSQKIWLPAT

[11] = target: Macrophage colony-stimulating factor 1 receptor (Homo sapiens, UniProt P07333);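 also: value comes from the Navigating the Kinome screening panel, CSF1R member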
Macrophage colony-stimulating factor 1 receptor, sequence (P07333 whole entry): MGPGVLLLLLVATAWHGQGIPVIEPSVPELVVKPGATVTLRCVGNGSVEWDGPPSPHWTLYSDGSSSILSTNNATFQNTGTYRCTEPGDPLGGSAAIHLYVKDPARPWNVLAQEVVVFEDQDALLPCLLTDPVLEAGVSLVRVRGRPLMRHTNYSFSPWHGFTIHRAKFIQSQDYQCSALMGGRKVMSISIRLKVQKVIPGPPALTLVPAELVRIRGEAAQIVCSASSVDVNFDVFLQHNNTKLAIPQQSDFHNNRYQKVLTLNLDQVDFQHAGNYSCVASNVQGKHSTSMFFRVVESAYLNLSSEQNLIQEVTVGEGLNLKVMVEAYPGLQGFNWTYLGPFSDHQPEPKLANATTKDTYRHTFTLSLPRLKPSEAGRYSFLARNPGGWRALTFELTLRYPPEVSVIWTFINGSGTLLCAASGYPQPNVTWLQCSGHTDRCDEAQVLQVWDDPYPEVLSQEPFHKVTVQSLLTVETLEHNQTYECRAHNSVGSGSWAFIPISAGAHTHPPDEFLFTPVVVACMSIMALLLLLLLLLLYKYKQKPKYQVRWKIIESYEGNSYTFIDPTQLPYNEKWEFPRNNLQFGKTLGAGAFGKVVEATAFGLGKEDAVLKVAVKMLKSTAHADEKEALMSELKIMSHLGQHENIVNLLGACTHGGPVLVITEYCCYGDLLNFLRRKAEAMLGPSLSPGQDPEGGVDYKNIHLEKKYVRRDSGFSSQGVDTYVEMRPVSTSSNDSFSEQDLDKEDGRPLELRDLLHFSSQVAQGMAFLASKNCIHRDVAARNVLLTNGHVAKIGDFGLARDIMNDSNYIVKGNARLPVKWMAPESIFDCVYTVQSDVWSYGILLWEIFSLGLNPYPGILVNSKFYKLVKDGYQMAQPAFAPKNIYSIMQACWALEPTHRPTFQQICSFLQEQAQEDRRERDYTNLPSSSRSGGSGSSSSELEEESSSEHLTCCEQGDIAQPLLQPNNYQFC

[12] = target: Tyrosine-protein kinase ABL1 (Homo sapiens, UniProt P00519)
[13] = target: Platelet-derived growth factor receptor beta (Homo sapiens, UniProt P09619);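 also: value comes from a kinome panel, with PDGFRB tested as one panel member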
[14] = target: Fibroblast growth factor receptor 1 (Homo sapiens, UniProt P11362)
Fibroblast growth factor receptor 1, sequence (P11362 whole entry): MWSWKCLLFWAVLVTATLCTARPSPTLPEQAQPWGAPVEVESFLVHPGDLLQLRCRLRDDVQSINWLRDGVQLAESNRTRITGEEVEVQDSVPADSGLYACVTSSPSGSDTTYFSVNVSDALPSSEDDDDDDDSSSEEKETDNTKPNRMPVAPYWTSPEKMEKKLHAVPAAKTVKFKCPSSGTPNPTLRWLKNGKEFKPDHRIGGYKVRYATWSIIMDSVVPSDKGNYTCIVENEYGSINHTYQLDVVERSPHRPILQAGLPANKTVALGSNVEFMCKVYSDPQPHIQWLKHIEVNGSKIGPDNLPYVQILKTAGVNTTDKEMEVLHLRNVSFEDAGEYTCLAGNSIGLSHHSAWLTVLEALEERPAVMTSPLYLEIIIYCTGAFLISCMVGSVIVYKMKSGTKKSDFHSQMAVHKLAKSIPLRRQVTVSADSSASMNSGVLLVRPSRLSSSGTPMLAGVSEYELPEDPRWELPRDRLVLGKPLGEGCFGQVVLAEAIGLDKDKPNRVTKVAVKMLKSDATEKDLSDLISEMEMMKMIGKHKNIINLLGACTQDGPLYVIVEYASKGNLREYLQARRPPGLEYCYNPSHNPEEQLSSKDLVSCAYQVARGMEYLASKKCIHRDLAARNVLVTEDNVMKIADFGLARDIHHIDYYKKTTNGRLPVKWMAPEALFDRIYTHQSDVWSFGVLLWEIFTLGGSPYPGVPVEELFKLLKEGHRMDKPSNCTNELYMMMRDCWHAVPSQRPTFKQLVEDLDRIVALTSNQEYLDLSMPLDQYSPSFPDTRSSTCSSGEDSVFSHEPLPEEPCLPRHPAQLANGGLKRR

[15] = target: Leukocyte tyrosine kinase receptor (Homo sapiens, UniProt P29376); assay: Navigating the Kinome. Panel member name: LTK
[16] = target: Dual specificity protein kinase CLK4 (Homo sapiens, UniProt Q9HAZ1)
[17] = target: Cyclin-dependent kinase 5 (Homo sapiens, UniProt Q00535);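 also: CDK5 measured as one member of a kinase profiling panel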
[18] = target: Death-associated protein kinase 3 (Homo sapiens, UniProt O43293);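 also: measured as one member of a kinome-wide profiling panel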
[19] = target: Activated CDC42 kinase 1 (Homo sapiens, UniProt Q07912); assay: Navigating the Kinome. Panel member name: ACK1
[20] = target: Casein kinase I isoform alpha (Homo sapiens, UniProt P48729)
Casein kinase I isoform alpha, sequence (P48729 whole entry, canonical isoform): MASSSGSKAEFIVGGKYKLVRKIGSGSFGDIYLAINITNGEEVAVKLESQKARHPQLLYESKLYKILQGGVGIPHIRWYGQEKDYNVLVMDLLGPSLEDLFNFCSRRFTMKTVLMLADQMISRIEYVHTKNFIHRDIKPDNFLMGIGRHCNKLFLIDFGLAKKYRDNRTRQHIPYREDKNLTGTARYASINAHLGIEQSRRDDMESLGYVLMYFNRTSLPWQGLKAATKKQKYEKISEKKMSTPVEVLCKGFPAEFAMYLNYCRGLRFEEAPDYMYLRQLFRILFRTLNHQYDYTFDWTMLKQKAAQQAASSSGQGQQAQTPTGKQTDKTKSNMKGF

[21] = target: ALK tyrosine kinase receptor (Homo sapiens, UniProt Q9UM73);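 also: ALK tested as one member of a kinase panel screen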
[22] = target: Calcium/calmodulin-dependent protein kinase type II subunit alpha (Homo sapiens, UniProt Q9UQM7); assay: Navigating the Kinome. Panel member name: CAMK2A
[23] = target: Leucine-rich repeat serine/threonine-protein kinase 2 (Homo sapiens, UniProt Q5S007);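 also: value from a broad kinome-wide panel profiling study in which LRRK2 was one of the kinases tested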
[24] = target: Focal adhesion kinase 1 (Homo sapiens, UniProt Q05397);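 also: measured as one member of a kinome panel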
[25] = target: 5'-AMP-activated protein kinase catalytic subunit alpha-1 (Homo sapiens, UniProt Q13131)
[26] = target: Mitogen-activated protein kinase 8 (Homo sapiens, UniProt P45983);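 also: value comes from one member of a kinome-wide kinase profiling panel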
[27] = target: Macrophage-stimulating protein receptor (Homo sapiens, UniProt Q04912); assay: Navigating the Kinome. Panel member name: MST1R
[28] = target: Hepatocyte growth factor receptor (Homo sapiens, UniProt P08581);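 also: kinase panel profiling across the kinome, with MET as the panel member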
[29] = target: Serine/threonine-protein kinase D3 (Homo sapiens, UniProt O94806);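 also: determined within a kinase panel screen, with PRKCN as the panel member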
[30] = target: Serine/threonine-protein kinase TBK1 (Homo sapiens, UniProt Q9UHD2); assay: Navigating the Kinome. Panel member name: TBK1
[31] = target: Tyrosine-protein kinase JAK2 (Homo sapiens, UniProt O60674);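 also: JAK2 tested as one member of a kinase panel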
[32] = target: Inhibitor of nuclear factor kappa-B kinase subunit epsilon (Homo sapiens, UniProt Q14164); assay: Navigating the Kinome. Panel member name: IKBKE
Inhibitor of nuclear factor kappa-B kinase subunit epsilon, sequence (Q14164 whole entry): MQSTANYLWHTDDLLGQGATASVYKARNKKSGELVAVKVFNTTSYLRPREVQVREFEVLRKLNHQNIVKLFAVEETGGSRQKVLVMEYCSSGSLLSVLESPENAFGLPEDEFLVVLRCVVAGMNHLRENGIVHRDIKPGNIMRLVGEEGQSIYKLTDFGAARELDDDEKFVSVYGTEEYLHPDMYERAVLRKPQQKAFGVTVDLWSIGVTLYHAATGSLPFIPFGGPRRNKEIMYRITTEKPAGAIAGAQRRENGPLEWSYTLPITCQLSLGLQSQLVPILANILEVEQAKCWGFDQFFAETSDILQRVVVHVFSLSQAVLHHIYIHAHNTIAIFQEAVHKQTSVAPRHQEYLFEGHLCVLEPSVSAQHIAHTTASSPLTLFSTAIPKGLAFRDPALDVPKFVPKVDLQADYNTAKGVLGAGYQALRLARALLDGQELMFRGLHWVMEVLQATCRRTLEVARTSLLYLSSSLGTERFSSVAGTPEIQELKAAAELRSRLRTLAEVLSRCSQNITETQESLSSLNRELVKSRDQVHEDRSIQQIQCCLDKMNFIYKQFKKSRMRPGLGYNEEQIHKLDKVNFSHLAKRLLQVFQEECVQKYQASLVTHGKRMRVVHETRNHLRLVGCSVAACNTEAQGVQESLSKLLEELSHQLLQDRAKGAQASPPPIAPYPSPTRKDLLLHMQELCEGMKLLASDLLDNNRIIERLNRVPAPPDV

[33] = target: Rho-associated protein kinase 1 (Homo sapiens, UniProt Q13464);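 also: measured within a broad kinome-wide panel profiling many kinases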
Rho-associated protein kinase 1, sequence (Q13464 whole entry): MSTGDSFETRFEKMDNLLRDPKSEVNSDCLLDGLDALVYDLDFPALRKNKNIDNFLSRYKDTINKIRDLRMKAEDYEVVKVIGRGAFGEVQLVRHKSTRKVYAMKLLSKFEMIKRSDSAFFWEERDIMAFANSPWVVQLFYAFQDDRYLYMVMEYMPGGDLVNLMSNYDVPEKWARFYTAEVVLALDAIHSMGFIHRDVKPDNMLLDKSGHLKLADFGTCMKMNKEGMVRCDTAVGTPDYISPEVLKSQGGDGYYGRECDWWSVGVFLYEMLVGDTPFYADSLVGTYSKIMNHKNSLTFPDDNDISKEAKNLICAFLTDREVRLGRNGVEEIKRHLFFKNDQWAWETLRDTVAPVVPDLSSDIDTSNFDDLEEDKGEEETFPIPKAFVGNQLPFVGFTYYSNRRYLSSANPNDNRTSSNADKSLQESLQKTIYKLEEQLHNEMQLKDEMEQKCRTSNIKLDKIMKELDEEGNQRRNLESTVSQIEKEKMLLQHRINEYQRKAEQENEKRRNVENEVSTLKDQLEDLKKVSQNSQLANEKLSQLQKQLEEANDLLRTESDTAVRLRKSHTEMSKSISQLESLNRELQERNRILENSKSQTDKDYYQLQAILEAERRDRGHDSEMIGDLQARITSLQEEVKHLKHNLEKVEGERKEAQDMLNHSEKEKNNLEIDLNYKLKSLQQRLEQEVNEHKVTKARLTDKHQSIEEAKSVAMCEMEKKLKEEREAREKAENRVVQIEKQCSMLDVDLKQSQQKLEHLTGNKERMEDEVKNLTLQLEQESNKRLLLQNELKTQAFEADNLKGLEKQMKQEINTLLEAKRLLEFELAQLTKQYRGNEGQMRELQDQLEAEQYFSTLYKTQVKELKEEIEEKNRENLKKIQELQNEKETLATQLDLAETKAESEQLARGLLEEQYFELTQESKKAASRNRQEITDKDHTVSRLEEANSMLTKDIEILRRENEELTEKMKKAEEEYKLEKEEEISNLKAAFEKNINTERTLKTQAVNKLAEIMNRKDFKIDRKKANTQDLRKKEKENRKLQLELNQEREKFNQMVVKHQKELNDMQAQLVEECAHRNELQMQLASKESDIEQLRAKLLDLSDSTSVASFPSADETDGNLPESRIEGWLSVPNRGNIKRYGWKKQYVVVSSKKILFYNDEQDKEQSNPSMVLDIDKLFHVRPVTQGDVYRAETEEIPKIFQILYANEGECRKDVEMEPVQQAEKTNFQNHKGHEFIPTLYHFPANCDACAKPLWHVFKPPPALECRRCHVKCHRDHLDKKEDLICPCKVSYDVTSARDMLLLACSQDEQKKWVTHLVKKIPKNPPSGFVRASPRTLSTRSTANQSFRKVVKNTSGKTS

[34] = target: Cyclin-dependent kinase 9 (Homo sapiens, UniProt P50750);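 also: value from the CDK9 entry of a kinome-spanning kinase panel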
[35] = target: Dual specificity protein kinase CLK2 (Homo sapiens, UniProt P49760)
[36] = target: Serine/threonine-protein kinase pim-1 (Homo sapiens, UniProt P11309)
[37] = target: Dual specificity tyrosine-phosphorylation-regulated kinase 1B (Homo sapiens, UniProt Q9Y463); assay: Navigating the Kinome. Panel member name: DYRK1B
[38] = target: Vascular endothelial growth factor receptor 2 (Homo sapiens, UniProt P35968)
[39] = target: Tyrosine-protein kinase receptor TYRO3 (Homo sapiens, UniProt Q06418);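 also: TYRO3 value obtained as one member of a kinome-wide profiling panel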
[40] = target: Activin receptor type-1 (Homo sapiens, UniProt Q04771); assay: Navigating the Kinome. Panel member name: ACVR1

SMILES | Ki [1] | Ki [2] | Ki [3] | Ki [4] | Ki [5] | Ki [6] | Ki [7] | Ki [8] | Ki [9] | Ki [10] | Ki [11] | Ki [12] | Ki [13] | Ki [14] | Ki [15] | Ki [16] | Ki [17] | Ki [18] | Ki [19] | Ki [20] | other results
COc1cc2c(cc1Nc1nc(Nc3cccc(F)c3C(N)=O)c3cc[nH]c3n1)N(C(=O)CN(C)C)CC2 | > 2.51 µM (inactive) | > 1.58 µM (inactive) | 2 µM (active) | > 3.16 µM (inactive) | 0.631 µM (active) | > 5.01 µM (inactive) | > 2.51 µM (inactive) | > 2.51 µM (inactive) | > 3.98 µM (inactive) | 2.51 µM (active) | > 2.51 µM (inactive) | > 2.51 µM (inactive) | > 2 µM (inactive) | > 3.98 µM (inactive) | 1.58 nM (active) | 20 nM (active) | > 3.16 µM (inactive) | 0.1 µM (active) | 2 µM (active) | 1.26 µM (active) | Ki [21]: 0.00126 µM (active); Ki [22]: > 3.98 µM (inactive); Ki [23]: 7.94 nM (active); Ki [24]: 0.0398 µM (active); Ki [25]: > 3.16 µM (inactive); Ki [26]: 0.158 µM (active); Ki [27]: > 3.98 µM (inactive); Ki [28]: > 2.51 µM (inactive); Ki [29]: 398 nM (active); Ki [30]: > 3.16 µM (inactive); Ki [31]: > 2.51 µM (inactive); Ki [32]: > 3.16 µM (inactive); Ki [33]: 2 µM (active); Ki [34]: > 1.58 µM (inactive); Ki [35]: 0.0316 µM (active); Ki [36]: 3.98 µM (active); Ki [37]: 1.26 µM (active); Ki [38]: > 2.51 µM (inactive); Ki [39]: > 3.16 µM (inactive); Ki [40]: > 3.98 µM (inactive)
O=c1[nH][nH]c2ccc(Br)cc12 | 79.4 µM (active) | 1.58 µM (active) | 79.4 µM (active) | 25.1 µM (active) | 31.6 µM (active) | 25.1 µM (active) | 31.6 µM (active) | 31.6 µM (active) | 10 µM (active) | 2.51 µM (active) | 39.8 µM (active) | 39.8 µM (active) | 63.1 µM (active) | 31.6 µM (active) | 5010 nM (active) | 1260 nM (active) | 3.16 µM (active) | 7.94 µM (active) | 31.6 µM (active) | 7.94 µM (active) | Ki [21]: 79.4 µM (active); Ki [22]: 31.6 µM (active); Ki [23]: 3980 nM (active); Ki [24]: 31.6 µM (active); Ki [25]: 12.6 µM (active); Ki [26]: 25.1 µM (active); Ki [27]: 31.6 µM (active); Ki [28]: 12.6 µM (active); Ki [29]: 3160 nM (active); Ki [30]: 31.6 µM (active); Ki [31]: 25.1 µM (active); Ki [32]: 7.94 µM (active); Ki [33]: 15.8 µM (active); Ki [34]: 5.01 µM (active); Ki [35]: 15.8 µM (active); Ki [36]: 15.8 µM (active); Ki [37]: 3.16 µM (active); Ki [38]: 63.1 µM (active); Ki [39]: 10 µM (active); Ki [40]: 7.94 µM (active)
